Counter-ions that a name gives are not always drawn.
How the values were obtained:
[1] = Solubility of salts of Compound 2 and free base in distilled water (gravimetric); assay type: physicochemical; conditions: for Solubility (mg solid/mL water): distilled water, RT, stirred 3 days, gravimetric; for XRPD Pattern Recovered: solid recovered after slurry in water at RT
Description: Solubility of the scaled-up salts of Compound 2 and free base Compound 2 was assessed in distilled water at RT. Approximately 30 mg of solid was weighed directly into 2 mL vials, and a 6 mm stir bar was added to each vial. Water was then incrementally added to the vials (starting with 1 vol.) and the resulting slurries were left to stir for 10-15 min prior to the next addition. As all solids remained in slurries upon the addition of 1 mL of water, the gravimetric method was adopted, and the vials were stirred at RT for 3 days before centrifuging. Supernatant solutions were recovered and evaporated to dryness at 50° C. in atmosphere on a hot plate, then placed at 50° C. under vacuum (˜−29 inHg) for 3 h before final weighing.

[2] = Solid-form stability study of salts of Compound 2 (75% RH, 40° C., 7 days); assay type: physicochemical; conditions: for Purity (%) After / Purity (%) Before: HPLC; for Purity (%) After / XRPD Pattern After: after 7 days at 75% RH and 40° C.; for Purity (%) Before: before stress test
Description: Solid-form stability studies were completed by weighing approximately 30 mg each of Form A of the camsylate, esylate, mesylate, and sulfate salts of Compound 2 into 4 mL vials and covering with a Kimwipe. The vials were placed inside a humidity chamber set to 75% RH at 40° C. for 7 days. The HPLC and XRPD data was collected to confirm the purity and identity of the solid forms. The four salts were physically and chemically stable. No decrease in purity (i.e. less than 0.1%) or form change was observed after a seven-day stress test at 75% relative humidity (RH) and 40° C. (Table 5).

[3] = Salt screen of Compound 2: XRPD after drying and humidification; conditions: vacuum 50° C. at least 3 h, >95% RH overnight
[4] = Solubility of Compound 1 salts in organic solvents (solvent volumes); assay type: physicochemical
Description: Preparation of Additional Salts: Additional salts shown in the Table below were prepared using procedures similar to those described above and the solubility of the resulting salts of Compound 1 was evaluated.

[5] = Stability study of Compound 1 drug substance; assay type: physicochemical; conditions: 1 month / three months (Example 10)
Description: A stability study is conducted for Compound 1. Samples were stored at: 30° C.±2° C./65%±5% Relative Humidity (RH), or 40° C.±2° C./75%±5% RH. At regular intervals (e.g., initial, 1, 3, 6, 9, 12, 18, 24, and 36 months), tests are performed for description, assay, related substances, water content, polymorphic form, and chiral purity.
A stability study was conducted for Compound 1 crystalline free base Form 2. Samples were stored at: (1) 30° C.±2° C./65%±5% Relative Humidity (RH), with data collected at 0, 1, 3, 6, 9, and 12 months; and (2) 40° C.±2° C./75%±5% RH, with data collected at 0, 1, 3, and 6 months. At the indicated time points, tests were performed for description, assay, related substances, water content, polymorphic form, and chiral purity.

[6] = Desolvation experiments on solvated forms (heating, then XRPD); assay type: physicochemical
Description: Desolvation experiments were carried out on the solvated forms identified during the polymorph screen to establish the relationships between the forms. Samples were heated to a temperature at which the solids fully desolvated (based on TG/DSC characterisation data) and where exothermic events were observed after desolvation a separate experiment was carried out to assess for additional solid forms.

[7] = target temperature 150 °C, after desolvation
[8] = target temperature 200 °C, after exothermic event

| SMILES | Solubility, Volume (at 10-20° C.) ([4]; 2-MeTHF) | Solubility, Volume (at 10-20° C.) ([4]; Acetone) | Solubility, Volume (at 10-20° C.) ([4]; CPME) | Solubility, Volume (at 10-20° C.) ([4]; EtOAc) | Solubility, Volume (at 10-20° C.) ([4]; IPA) | Solubility, Volume (at 10-20° C.) ([4]; IPAc) | Solubility, Volume (at 10-20° C.) ([4]; MeCN) | Solubility, Volume (at 10-20° C.) ([4]; THF) | Solubility, Volume (at 10-20° C.) ([4]; Toluene) | Solubility, Volume (at 10-20° C.) ([4]; t-AmOH) | Solid Form post-heating [6, 7] | also measured |
| --- | --- | --- | --- | --- | --- | --- | --- | --- | --- | --- | --- | --- |
| CCn1cc(Cc2cn(C)nc2-c2ccc(F)cc2[C@@H](C)Oc2cc(Br)cnc2N)c(Cl)n1 [Camsylate Salt] |  |  |  |  |  |  |  |  |  |  |  | Solubility (mg solid/mL water) [1]: <3 mg solid/mL water; XRPD Pattern Recovered [1]: Form A; Purity (%) After [2]: 99.65%; Purity (%) Before [2]: 99.59%; XRPD Pattern After [2]: Form A; Stability of crystalline salt pattern to drying and humidification [3]: stable to drying and humidification |
| CCn1nc(Cl)c2c1-c1cnc(N)c(c1)O[C@H](C)c1cc(F)ccc1-c1nn(C)cc1C2 [Citric Acid salt] | 8-10 V | 6-8 V | 330 V | >400 V | 24-28 V | >400 V | 300-400 V | 10-12 V | >400 V | 86-90 V |  |  |
| CCn1nc(Cl)c2c1-c1cnc(N)c(c1)O[C@H](C)c1cc(F)ccc1-c1nn(C)cc1C2 [Compound 1] |  |  |  |  |  |  |  |  |  |  |  | Chemical and physical stability (description, assay, related substances, water content, polymorphic form, chiral purity) ([5]; 30° C.±2° C./65%±5% RH): No meaningful changes; Chemical and physical stability (description, assay, related substances, water content, polymorphic form, chiral purity) ([5]; 40° C.±2° C./75%±5% RH): No meaningful changes |
| CCn1cc(Cc2cn(C)nc2-c2ccc(F)cc2[C@@H](C)Oc2cc(Br)cnc2N)c(Cl)n1 [Esylate Salt] |  |  |  |  |  |  |  |  |  |  |  | Solubility (mg solid/mL water) [1]: 5 mg solid/mL water; XRPD Pattern Recovered [1]: Form A; Purity (%) After [2]: 99.75%; Purity (%) Before [2]: 99.75%; XRPD Pattern After [2]: Form A; Stability of crystalline salt pattern to drying and humidification [3]: stable to drying and humidification |
| CCn1nc(Cl)c2c1-c1cnc(N)c(c1)O[C@H](C)c1cc(F)ccc1-c1nn(C)cc1C2 [Form 1] |  |  |  |  |  |  |  |  |  |  | Form 2 | Solid Form post-heating ([6]; target temperature 105 °C, after desolvation): Form 2 |
| CCn1nc(Cl)c2c1-c1cnc(N)c(c1)O[C@H](C)c1cc(F)ccc1-c1nn(C)cc1C2 [Form 4] |  |  |  |  |  |  |  |  |  |  |  | Solid Form post-heating ([6]; target temperature 132 °C, after desolvation): Form 2; Solid Form post-heating ([6]; target temperature 170 °C, after exothermic event): Form 2 |
| CCn1nc(Cl)c2c1-c1cnc(N)c(c1)O[C@H](C)c1cc(F)ccc1-c1nn(C)cc1C2 [Form 7] |  |  |  |  |  |  |  |  |  |  |  | Solid Form post-heating ([6]; target temperature 134 °C, after desolvation): Form 2 |
| CCn1nc(Cl)c2c1-c1cnc(N)c(c1)O[C@H](C)c1cc(F)ccc1-c1nn(C)cc1C2 [Form 8] |  |  |  |  |  |  |  |  |  |  | Form 2 | Solid Form post-heating [6, 8]: Form 2 |
| CCn1nc(Cl)c2c1-c1cnc(N)c(c1)O[C@H](C)c1cc(F)ccc1-c1nn(C)cc1C2 [Form 9] |  |  |  |  |  |  |  |  |  |  | Form 2 |  |
| CCn1nc(Cl)c2c1-c1cnc(N)c(c1)O[C@H](C)c1cc(F)ccc1-c1nn(C)cc1C2 [Form 10] |  |  |  |  |  |  |  |  |  |  | Form 2 |  |
| CCn1nc(Cl)c2c1-c1cnc(N)c(c1)O[C@H](C)c1cc(F)ccc1-c1nn(C)cc1C2 [Form 11] |  |  |  |  |  |  |  |  |  |  |  | Solid Form post-heating ([6]; target temperature 130 °C, after desolvation): Form 2; Solid Form post-heating [6, 8]: Form 2 |
| CCn1nc(Cl)c2c1-c1cnc(N)c(c1)O[C@H](C)c1cc(F)ccc1-c1nn(C)cc1C2 [Form 12] |  |  |  |  |  |  |  |  |  |  | Form 2 |  |
| CCn1cc(Cc2cn(C)nc2-c2ccc(F)cc2[C@@H](C)Oc2cc(Br)cnc2N)c(Cl)n1 [Free Base] |  |  |  |  |  |  |  |  |  |  |  | Solubility (mg solid/mL water) [1]: <3 mg solid/mL water; XRPD Pattern Recovered [1]: Amorphous |

More lines, main results first:

| Solubility, Volume (at 10-20° C.) ([4]; 2-MeTHF) | Solubility, Volume (at 10-20° C.) ([4]; Acetone) | Solubility, Volume (at 10-20° C.) ([4]; CPME) | Solubility, Volume (at 10-20° C.) ([4]; EtOAc) | Solubility, Volume (at 10-20° C.) ([4]; IPA) | Solubility, Volume (at 10-20° C.) ([4]; IPAc) | Solubility, Volume (at 10-20° C.) ([4]; MeCN) | Solubility, Volume (at 10-20° C.) ([4]; THF) | Solubility, Volume (at 10-20° C.) ([4]; Toluene) | Solubility, Volume (at 10-20° C.) ([4]; t-AmOH) | Solid Form post-heating [6, 7] | SMILES | also measured |
| --- | --- | --- | --- | --- | --- | --- | --- | --- | --- | --- | --- | --- |
|  |  |  |  |  |  |  |  |  |  | Form 2 | CCn1nc(Cl)c2c1-c1cnc(N)c(c1)O[C@H](C)c1cc(F)ccc1-c1nn(C)cc1C2 [Form 13] |  |
|  |  |  |  |  |  |  |  |  |  | Amorphous | CCn1nc(Cl)c2c1-c1cnc(N)c(c1)O[C@H](C)c1cc(F)ccc1-c1nn(C)cc1C2 [Form 15] | Solid Form post-heating [6, 8]: Form 2 |
| 8-10 V | 8-10 V | 50-60 V | 80-90 V | 8-9 V | 90-100 V | 150-200 V | 3-4 V | >400 V | 22-24 V |  | CCn1nc(Cl)c2c1-c1cnc(N)c(c1)O[C@H](C)c1cc(F)ccc1-c1nn(C)cc1C2 [Fumaric Acid salt] |  |
| >160 V | 58-60 V | >500 V | >100 V | 140-150 V | >400 V | >400 V | >160 V | >400 V | >400 V |  | CCn1nc(Cl)c2c1-c1cnc(N)c(c1)O[C@H](C)c1cc(F)ccc1-c1nn(C)cc1C2 [H3PO4 salt] |  |
| >400 V | 22-24 V | >500 V | >400 V | 8-10 V | >400 V | 8-10 V | 300-400 V | >400 V | 18-20 V |  | CCn1nc(Cl)c2c1-c1cnc(N)c(c1)O[C@H](C)c1cc(F)ccc1-c1nn(C)cc1C2 [HCl salt] |  |
| 4-6 V | 2-4 V | 60-70 V | 12-14 V | 18-20 V | 52-56 V | 30-32 V | 8-10 V | >400 V | 18-20 V |  | CCn1nc(Cl)c2c1-c1cnc(N)c(c1)O[C@H](C)c1cc(F)ccc1-c1nn(C)cc1C2 [L-Tartaric Acid Salt] |  |
| >400 V | 56-60 V | >400 V | 300-400 V | 56-60 V | 260-300 V | 6-8 V | 60-100 V | >400 V | 340-360 V |  | CCn1nc(Cl)c2c1-c1cnc(N)c(c1)O[C@H](C)c1cc(F)ccc1-c1nn(C)cc1C2 [MSA salt] |  |
| 50-60 V | 2-4 V | 220 V | 20-30 V | 70-80 V | 20-30 V | 16-20 V | 2-4 V | >400 V | 6-8 V |  | CCn1nc(Cl)c2c1-c1cnc(N)c(c1)O[C@H](C)c1cc(F)ccc1-c1nn(C)cc1C2 [Maleic Acid salt] |  |
| 18-20 V | 26-28 V | 100-140 V | 26-30 V | 300-400 V | 56-60 V | 90-100 V | 4-6 V | 320-360 V | >400 V |  | CCn1nc(Cl)c2c1-c1cnc(N)c(c1)O[C@H](C)c1cc(F)ccc1-c1nn(C)cc1C2 [Salicylic acid salt] |  |
| >400 V | 10-12 V | >400 V | 18-20 V | >400 V | 18-20 V | 8-10 V | 280-300 V | >400 V | >400 V |  | CCn1nc(Cl)c2c1-c1cnc(N)c(c1)O[C@H](C)c1cc(F)ccc1-c1nn(C)cc1C2 [TsOH salt] |  |
